# Literature values in patent publication US6514992B1, “Caspases and apoptosis” (SmithKline Beecham Corporation, priority 1998, dated 2003).
# Test system: osteoclasts of murine bone marrow cultures
# Conditions: murine bone marrow cultures grown for 6 days in vitro
substance,measurement,value
TGF-β1: cytokine cited as inducing apoptosis in osteoclasts of murine bone marrow cultures,apoptosis induced in osteoclasts,approx. 30%
